The record followed here is PMC7932537, “Quantitative profiling of protease specificity” (PLoS Computational Biology, 2021).

Test [1] concerns the target T1, MMP-2 (Homo sapiens, UniProt P08253).
T1 sequence (P08253 110-660): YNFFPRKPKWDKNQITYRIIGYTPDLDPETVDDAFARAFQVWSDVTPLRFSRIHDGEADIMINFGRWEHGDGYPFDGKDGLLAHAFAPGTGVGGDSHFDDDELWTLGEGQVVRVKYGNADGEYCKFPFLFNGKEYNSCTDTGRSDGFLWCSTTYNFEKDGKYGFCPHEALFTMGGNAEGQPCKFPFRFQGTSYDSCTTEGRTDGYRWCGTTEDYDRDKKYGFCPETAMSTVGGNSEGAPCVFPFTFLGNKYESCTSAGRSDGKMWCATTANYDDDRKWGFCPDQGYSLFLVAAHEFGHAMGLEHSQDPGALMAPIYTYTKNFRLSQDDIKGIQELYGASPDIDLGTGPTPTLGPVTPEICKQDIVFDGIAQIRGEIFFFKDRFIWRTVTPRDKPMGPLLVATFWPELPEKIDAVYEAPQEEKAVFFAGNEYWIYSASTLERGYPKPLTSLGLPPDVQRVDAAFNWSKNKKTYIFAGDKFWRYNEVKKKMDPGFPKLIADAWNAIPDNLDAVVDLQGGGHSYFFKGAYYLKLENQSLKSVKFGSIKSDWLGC
Description: K(obs) of individual phage substrates (set of 1369). Format: biochemical. The note with it: MMP2.

The next test deals with MMP-9 (Homo sapiens, UniProt P14780). Described as above. The note with it: MMP9. The test is classed as biochemical.
MMP-9, sequence (P14780 94-707): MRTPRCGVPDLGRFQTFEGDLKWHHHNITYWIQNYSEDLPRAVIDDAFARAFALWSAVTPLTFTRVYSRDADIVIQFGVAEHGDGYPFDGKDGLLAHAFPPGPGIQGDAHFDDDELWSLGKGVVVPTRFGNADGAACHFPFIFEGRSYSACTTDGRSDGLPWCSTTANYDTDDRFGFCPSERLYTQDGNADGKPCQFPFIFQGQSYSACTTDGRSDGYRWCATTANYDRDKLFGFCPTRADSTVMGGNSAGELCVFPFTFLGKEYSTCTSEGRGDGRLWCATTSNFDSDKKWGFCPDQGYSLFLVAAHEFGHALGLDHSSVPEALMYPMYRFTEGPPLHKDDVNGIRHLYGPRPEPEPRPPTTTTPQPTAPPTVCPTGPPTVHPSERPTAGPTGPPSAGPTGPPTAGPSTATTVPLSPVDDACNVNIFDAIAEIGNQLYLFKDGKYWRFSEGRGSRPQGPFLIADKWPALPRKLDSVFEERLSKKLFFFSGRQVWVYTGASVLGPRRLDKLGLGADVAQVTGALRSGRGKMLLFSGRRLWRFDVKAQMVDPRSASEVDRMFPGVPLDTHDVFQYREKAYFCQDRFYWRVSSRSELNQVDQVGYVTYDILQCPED
Test [2] relates to MMP-2. The test can be described thus: Substrate phage display with NGS: relative probability (RP) of P3-P1' tetramer clusters.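 Also: ratio of tetramer probability after protease selection to that in naive phage library.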 Format: biochemical, human. The note with it: MMP2.
Where [3] appears, read: individual phage substrate of the set of 1369 peptides, cleavage position marked by '-'.
Where [4] appears, read: individual phage substrate of the set of 1369 peptides, dash in the sequence marks the cleavage position.
[5] abbreviates: RP of the P3-P1' tetramer contained in the substrate.
The mark [6] stands for this setting: individual phage substrates, set of 1369 peptides, cleavage position marked by hyphen in sequence.
Setting [7] is: individual phage substrates, set of 1369 peptides, hyphen in sequence marks cleavage position.
Setting [8] is: RP of the P3-P1' tetramer contained in the substrate (substrate phage display with NGS).

On to SGAFN-LYSTA, for which the Kobs at MMP-2 [1] (setting [3]) and at MMP-9 (setting [4]) was 12792.1 M⁻¹ s⁻¹ throughout. Further, the “relative probability (RP)” value in the test on MMP-2 [2] (setting [5]) amounted to 16.2959.

SGAHG-ILSTA: the Kobs was 2996.69 M⁻¹ s⁻¹ on MMP-2 [1] (setting [3]) and 3536.02 M⁻¹ s⁻¹ on MMP-9 (setting [4]). Besides, the “relative probability (RP)” value in the test with MMP-2 [2] (setting [5]) amounted to 8.881.

For the substance SGAHG-LLLTA, the Kobs on MMP-2 [1] (setting [3]) came out at 517.582 M⁻¹ s⁻¹; on MMP-9 (setting [4]) it was 1071.29 M⁻¹ s⁻¹. Further, the “relative probability (RP)” value in the test with MMP-2 [2] (setting [5]) turned out to be 23.6336.

Take SGAHG-LLTTA: the Kobs came out at 1112.44 M⁻¹ s⁻¹ at MMP-2 [1] (setting [3]) and 142.481 M⁻¹ s⁻¹ on MMP-9 (setting [4]). In addition, the “relative probability (RP)” value in the test on MMP-2 [2] (setting [5]) is 23.6336.

In the case of SGALH-LKATA, the “Kobs” value at MMP-2 [1] (setting [6]) is 4205.91 M⁻¹ s⁻¹; on MMP-9 (setting [7]), 6688.74 M⁻¹ s⁻¹. Further, the “relative probability (RP)” value in the test with MMP-2 [2] (setting [8]) is listed as 14.6488.

Regarding SGAMG-LFRTA, the Kobs was 142.481 M⁻¹ s⁻¹ on MMP-2 [1] (setting [3]) and 619.843 M⁻¹ s⁻¹ at MMP-9 (setting [4]). In the test on MMP-2 [2] (setting [5]), the “relative probability (RP)” value came out at 23.7576.

Turning to SGAQM-LRGTA, the “Kobs” value was 4082.43 M⁻¹ s⁻¹ at MMP-2 [1] (setting [6]) and 5461.43 M⁻¹ s⁻¹ at MMP-9 (setting [7]). Moreover, the “relative probability (RP)” value in the test with MMP-2 [2] (setting [8]) is given as 8.608.

On to SGARA-MKWTA, for which the Kobs at MMP-2 [1] (setting [3]) stood at 1373.05 M⁻¹ s⁻¹; at MMP-9 (setting [4]), 2837.92 M⁻¹ s⁻¹. Also, the “relative probability (RP)” value in the test on MMP-2 [2] (setting [5]) turned out to be 25.2992.

As to SGARN-LLWTA, the Kobs was 1660.66 M⁻¹ s⁻¹ at MMP-2 [1] (setting [3]) and 4613.14 M⁻¹ s⁻¹ at MMP-9 (setting [4]). Besides, in the test on MMP-2 [2] (setting [5]), the “relative probability (RP)” value is reported as 24.6947.

Consider SGARQ-LVLTA, for which the “Kobs” value on MMP-2 [1] (setting [6]) and at MMP-9 (setting [7]) was 0 M⁻¹ s⁻¹ each time. Also, in the test on MMP-2 [2] (setting [8]), the “relative probability (RP)” value amounted to 3.214.

SGARS-LKGTA: the “Kobs” value on MMP-2 [1] (setting [6]) came out at 9740.44 M⁻¹ s⁻¹; on MMP-9 (setting [7]) it was 12792.1 M⁻¹ s⁻¹. Also, in the test with MMP-2 [2] (setting [8]), the “relative probability (RP)” value was 17.186.

For SGARS-MRLTA, the entries for the “Kobs” value at MMP-2 [1] (setting [6]) and on MMP-9 (setting [7]) were 0 M⁻¹ s⁻¹ and 762.325 M⁻¹ s⁻¹, respectively. Moreover, in the test with MMP-2 [2] (setting [8]), the “relative probability (RP)” value was 12.2991.

On to SGASH-MTLTA, for which the “Kobs” value on MMP-2 [1] (setting [6]) and on MMP-9 (setting [7]) was 0 M⁻¹ s⁻¹ each time. The “relative probability (RP)” value with MMP-2 [2] (setting [8]) is given as 12.3873.

SGFAH-LTSTA: the “Kobs” value at MMP-2 [1] (setting [6]) was 4763.33 M⁻¹ s⁻¹; at MMP-9 (setting [7]), 171.876 M⁻¹ s⁻¹. For the same substance, the “relative probability (RP)” value in the test with MMP-2 [2] (setting [8]) is reported as 19.6504.

With SGFLH-WRSTA, the “Kobs” value on MMP-2 [1] (setting [6]) and at MMP-9 (setting [7]) was 0 M⁻¹ s⁻¹ each time. Further, the “relative probability (RP)” value in the test on MMP-2 [2] (setting [8]) is given as 0.05793.

On to SGFRN-LRITA, for which the figures for the “Kobs” value at MMP-2 [1] (setting [6]) and on MMP-9 (setting [7]) were 0 M⁻¹ s⁻¹ and 201.585 M⁻¹ s⁻¹, respectively. The “relative probability (RP)” value in the test on MMP-2 [2] (setting [8]) is on record as 9.821.

On to SGGSG-LRIGL, for which the results for the Kobs at MMP-2 [1] (setting [3]) and at MMP-9 (setting [4]) were 12792.1 M⁻¹ s⁻¹ and 201.585 M⁻¹ s⁻¹, respectively. Moreover, in the test with MMP-2 [2] (setting [5]), the “relative probability (RP)” value was determined as 1.9698.

SGGSG-LRILQ: the Kobs at MMP-2 [1] (setting [3]) and on MMP-9 (setting [4]) was 0 M⁻¹ s⁻¹ in each case. The “relative probability (RP)” value with MMP-2 [2] (setting [5]) was determined as 1.9698.

As to SGGSG-LRVKR, the entries for the “Kobs” value at MMP-2 [1] (setting [6]) and at MMP-9 (setting [7]) were 551.253 M⁻¹ s⁻¹ and 231.616 M⁻¹ s⁻¹, respectively. In the test with MMP-2 [2] (setting [8]), the “relative probability (RP)” value was found to be 1.9698.

For SGGSG-LRVLK, the Kobs stood at 654.784 M⁻¹ s⁻¹ on MMP-2 [1] (setting [3]) and 355.093 M⁻¹ s⁻¹ on MMP-9 (setting [4]). For the same substance, the “relative probability (RP)” value in the test on MMP-2 [2] (setting [5]) is 1.9698.

On to SGGSG-LWATP, for which the Kobs came to 1870.4 M⁻¹ s⁻¹ at MMP-2 [1] (setting [3]) and 1071.29 M⁻¹ s⁻¹ at MMP-9 (setting [4]). Moreover, the “relative probability (RP)” value in the test with MMP-2 [2] (setting [5]) is listed as 1.9698.

In the case of SGHQN-LMATA, the “Kobs” value on MMP-2 [1] (setting [6]) amounted to 7386.83 M⁻¹ s⁻¹; at MMP-9 (setting [7]) it was 1561.44 M⁻¹ s⁻¹. Besides, in the test with MMP-2 [2] (setting [8]), the “relative probability (RP)” value was 17.7487.

On to SGHRS-LRSTA, for which the values for the Kobs on MMP-2 [1] (setting [3]) and at MMP-9 (setting [4]) were 1981.53 M⁻¹ s⁻¹ and 3536.02 M⁻¹ s⁻¹, respectively. Moreover, the “relative probability (RP)” value with MMP-2 [2] (setting [5]) worked out at 7.851.

Turning to SGISF-MSVTA, the “Kobs” value stood at 836.403 M⁻¹ s⁻¹ on MMP-2 [1] (setting [6]) and 0 M⁻¹ s⁻¹ at MMP-9 (setting [7]). Also, in the test with MMP-2 [2] (setting [8]), the “relative probability (RP)” value is given as 23.3965.

Regarding SGISY-MRITA, the “Kobs” value on MMP-2 [1] (setting [6]) came out at 836.403 M⁻¹ s⁻¹; on MMP-9 (setting [7]) it was 0 M⁻¹ s⁻¹. In the test with MMP-2 [2] (setting [8]), the “relative probability (RP)” value is reported as 22.3091.

Regarding SGLGT-LSKTA, the figures for the “Kobs” value on MMP-2 [1] (setting [6]) and at MMP-9 (setting [7]) were 836.403 M⁻¹ s⁻¹ and 0 M⁻¹ s⁻¹, respectively. Also, the “relative probability (RP)” value in the test on MMP-2 [2] (setting [8]) is given as 24.6198.
